In patent US20230172925A1, “SKIN-CARE COMPOSITIONS AND USES THEREOF” (AHAVA - DEAD SEA LABORATORIES LTD., priority 2019, published 2023):
Entries after “also recorded” stand apart in the source; their conditions may differ.

What was measured:
[1] = system: human skin explants (epidermis); assay: Human skin organ culture with UVB stressor, viability by MTT assay; type: cell-based; settings: UVB 200 mJ/cm2, topical 3 μl before and after irradiation, 48 hours in total; compared to irradiated control
Procedure: (§1) Topical exposure till 48 hours in total (24 hr recovery following topical application+24 hr after exposure to UVB irradiation) with UVB radiation as stressor on human skin model
(§2) The following general procedure was used in the study:
(§3) Day 1: Topical application of 3 μl of each sample solution on the epidermis of each skin explant. Incubate for 24 hours. SDS 10% was applied only once, and was not farther irradiated with UVB.
(§4) Day 2: Skin explants were washed once with PBS and irradiated with UVB lamp at 200 mJ/cm2. After radiation it was incubated for 30 min and then topically apply each treatment (sample solution) again. Control was not irradiated under UVB light. UVB radiated control was without any treatment except radiation.
(§5) Day 3: Viability and Caspase3 activity were measured for the epidermis layer. The medium was collected for cytokines test.
FIG. 2 illustrates a flow diagram of topical exposure/treatment till 48 hours, 24 hr recovery following topical application +24 hr after exposure to UVB irradiation) with UVB radiation as stressor on human skin model experiment. In the Experiment the SDS irritation control sample was a skin explant that was topical applied with 3 μl SDS 10% solution at day 1 only.
The viability of the various skin explants was measured by the 5-dimethylthiazol-2-yl]-2,5-diphenyl tetrazolium bromide (MTT) assay.

TNFα [2] = assay: Human skin organ culture with UVB stressor, TNFα secretion in the medium; type: cell-based; settings: UVB
Procedure: as §1, §2, §3, §4, §5
FIG. 4 illustrates the TNFα secretion results in the medium as observed with 2 to 4 repetition of the tests. In FIG. 4 the TNFα secretion of the irradiated sample “UVB” was selected as 100% and it equals 53±30 pg/ml.

IL-1α [3] = assay: Human skin organ culture with UVB stressor, IL-1α secretion in the medium; type: cell-based; settings: UVB
Procedure: as §1, §2, §3, §4, §5
FIG. 5 illustrates the IL-1α secretion results in the medium as observed with 3 to 4 repetition of the tests. In FIG. 5 the IL-1α secretion of the irradiated sample “UVB” was selected as 100% and it equals 8.1±1.0 pg/ml.

[4] = system: human skin explants (epidermis); assay: Human skin organ culture without UVB stressor, topical exposure till 96 hours, viability by MTT assay; type: cell-based; settings: no UVB; 96 hours of topical application; vs control
Procedure: (§6) Topical Exposure Till 96 Hours without External UVB Radiation as Stressor on Human Skin Model
(§7) Day 1: Topical application of 3 μl of each solution on the epidermis of each skin explant. Incubate for 24 hours. (SDS Irritation control: topical application of 3 ul SDS 10% was applied on the skin model at day 1 only. The rest of the days samples were untouched).
(§8) Day 2: Topical application of 3 μl of each solution on the epidermis of each skin explant. Incubate for 24 hours in fresh medium (medium was not collected). (UVB control: after 24 hours incubation with 3 μl H2O skin was irradiated with 200 mJ/cm2 UVB. The rest of the experiment days sample were topically applied with H2O, as control).
(§9) Day 3: Topical application of 3 μl of each solution on the epidermis of each skin explant. Incubate for 24 hours in fresh medium (medium was collected)—48 hours of total topical incubation.
(§10) Day 4: Topical application of 3 μl of each solution on the epidermis of each skin explant. Incubate for 24 hours in fresh medium (medium was collected)—72 hours of total topical incubation.
Day 5: Topical application of 3 μl of each solution on the epidermis of each skin explant. Incubate for 24 hours in fresh medium (medium was collected)—96 hours of total topical incubation. MTT assay was performed. […]
The viability of the various skin explants was measured by the MTT assay.

TNFα [5] = assay: Human skin organ culture without UVB stressor, TNFα secretion; type: cell-based; settings: no UVB
Procedure: as §6, §7, §8, §9, §10
(§11) Day 5: Topical application of 3 μl of each solution on the epidermis of each skin explant. Incubate for 24 hours in fresh medium (medium was collected)—96 hours of total topical incubation. MTT assay was performed.
FIG. 8 illustrates the TNFα secretion tested results. In FIG. 8 the TNFα secretion of the H2O sample was used as a control (0.35±0.05 pg/ml) for each time point.

IL-1α [6] = assay: Human skin organ culture without UVB stressor, IL-1α secretion; type: cell-based; settings: no UVB; Retinol 1.0%; 48, 72 and 96 hours
Procedure: as §6, §7, §8, §9, §10, §11
FIG. 9A illustrates the IL-1α secretion results in the medium. In FIG. 9A the IL-1α secretion of the H2O sample was used as a control (9.0±0.7 pg/ml […]) for each time point. FIG. 9B is a magnification of FIG. 9A.

skin equivalents = assay: DNA microarray gene expression in skin equivalents, comparative with 3D complex and Retinol (Example 6); type: cell-based, human; settings: Retinol 5 μM
Procedure: In the present study the biological activity on gene expression of the pRETINOL complex was compared to the activity of a composition which was previously described in [13] and [14] and referred to herein as 3D complex. The activity was further compared to that observed with Retinol (5 μM of Retinol in double distilled water).
On each array, treated vs. untreated samples were compared. Each array was processed and the data from all arrays was normalized to get the average expression and log fold change (log FC) for each gene on each array.
An analysis of full human genome was performed.
Further to the above analysis, similar to the study presented in Example 5, major skin related pathways were selected from KEGG and wiki pathways list and the p-value and z-score were calculated for these pathways.

[7] = system: human primary fibroblasts; assay: Hyaluronic acid production assay (ELISA); type: cell-based; settings: Retinol 1.0 μM in the culture media; 48 hours
Procedure: The human primary fibroblast cell culture was grown at an 80% confluence in Dulbecco's Modified Eagle's High glucose (Hg) medium (DMEM) culture medium containing 10% fetal bovine serum, 100 U/ml penicillin, and 100 U/ml streptomycin. The cells were cultivated in 6 wells plates.
The pRetinol complex was added at a final concentrations of. Osmoter 0.2%, Dunaliella salina extract 1.2%, Niacinimide 0.04% and 6.24 ppm of β-Carotene i.e., 2.5 times dilution (the dilution was necessary in view of the human primary fibroblast cells culture being more sensitive than skin full organ culture). Retinol was added to the medium at a final concentration of 1.0 μM.
The cells were incubated at 37° C., 5% CO2 at a 100% RH for 48 hours. After incubation the cells were extracted using RIPA buffer collected to a blending Eppendorf and ground using stain steal beads and a bullet blender for 5 min. The samples were centrifuged for 15 min at 5000 rpm and the supernatant was collected.
BCA Protein concentration assay were performed on all the samples. The protein level for all samples was dilated to reach a concentration of 0.1 ng/ml of protein, diluted with PBS. Samples contain a protein concentration of 0.1 ng/ml were tested for hyaluronic ELISA assay kit (R&D systems, ELISA kit). Results were obtained as ng/ml of hyaluronic acid per 1 μg of protein. […]

## CC1=C(/C=C/C(C)=C/C=C/C(C)=C/CO)C(C)(C)CCC1 [Retinol]
[1]
  viability (MTT, mitochondrial activity) of epidermis: increased mitochondrial activity
TNFα [2]; Retinol 0.5% (w/w) in EtOH
  reduction of TNFα secretion compared to the irradiated sample: 56%
TNFα [2]; Retinol 1.0% (w/w) in EtOH
  reduction of TNFα secretion compared to the irradiated sample: 45%
IL-1α [3]; Retinol 0.05% (w/w) in EtOH
  increase of IL-1α secretion: 83%
IL-1α [3]; Retinol 0.5% (w/w) in EtOH
  increase of IL-1α secretion: 50%
IL-1α [3]; Retinol 1.0% (w/w) in EtOH
  increase of IL-1α secretion: 53%
[4]
  viability (MTT, mitochondrial activity) of skin explants: did not cause increase or reduction of viability
TNFα [5]; Retinol 0.5%, after incubation of 72 hours, H2O control 0.35±0.05 pg/ml
  TNFα secretion: below the detection level
TNFα [5]; Retinol 1.0%, after incubation of 72 hours, H2O control 0.35±0.05 pg/ml
  TNFα secretion: below the detection level
TNFα [5]; Retinol for 48, 72 and 96 hours, reduction also observed with ethanol only
  TNFα secretion: caused a reduction
IL-1α [6]
  IL-1α secretion: increased; also recorded: caused an increase
Skin equivalents; KEGG_APOPTOSIS
  z-score: 1.0758
Skin equivalents; KEGG_BASE_EXCISION_REPAIR
  z-score: −0.2818
Skin equivalents; KEGG_NF_KAPPA_B_SIGNALING_PATHWAY
  z-score: −0.4673
Skin equivalents; KEGG_NOD-LIKE_RECEPTOR SIGNALING PATHWAY
  z-score: −0.3502
Skin equivalents; KEGG_SPHINGOLIPID_METABOLISM
  z-score: −0.6417
Skin equivalents; KEGG_TNF_SIGNALING_PATHWAY
  z-score: −1.1097
Skin equivalents; KEGG_YERSINIA_INFECTION
  z-score: 1.5054
Skin equivalents; WIKI_KERATINIZATION
  z-score: 10.548
[7]
  production of hyaluronic acid compared to the control sample: induce the production of hyaluronic acid
